Test results from PubChem BioAssay (NCI).
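Method: 48-hour compound exposure of cells in 96-well plates, five concentrations, linear interpolation of endpoints. GI50 marks 50% less growth. TGI marks complete inhibition of growth.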

Legend:
Test in all cases: NCI-60 cell line screen, 48 h
786-0 renal = system: 786-0 renal
A498 renal = system: A498 renal
A549 NSCLC = system: A549 NSCLC
ACHN renal = system: ACHN renal
CAKI-1 renal = system: CAKI-1 renal
CCRF-CEM leukemia = system: CCRF-CEM leukemia
COLO 205 colon = system: COLO 205 colon
DLD-1 colon = system: DLD-1 colon
DMS 273 small cell lung = system: DMS 273 small cell lung
EKVX NSCLC = system: EKVX NSCLC
HCC-2998 colon = system: HCC-2998 colon
HCT-116 colon = system: HCT-116 colon
HCT-15 colon = system: HCT-15 colon
HL-60(TB) leukemia = system: HL-60(TB) leukemia
HOP-18 NSCLC = system: HOP-18 NSCLC
HOP-62 NSCLC = system: HOP-62 NSCLC
HOP-92 NSCLC = system: HOP-92 NSCLC
HT29 colon = system: HT29 colon
IGROV1 ovarian = system: IGROV1 ovarian
K-562 leukemia = system: K-562 leukemia
KM12 colon = system: KM12 colon
KM20L2 colon = system: KM20L2 colon
LOX IMVI melanoma = system: LOX IMVI melanoma
LXFL 529 NSCLC = system: LXFL 529 NSCLC
M14 melanoma = system: M14 melanoma
M19-MEL melanoma = system: M19-MEL melanoma
MALME-3M melanoma = system: MALME-3M melanoma
MOLT-4 leukemia = system: MOLT-4 leukemia
NCI-H226 lung = system: NCI-H226 lung
NCI-H23 lung = system: NCI-H23 lung
NCI-H460 lung = system: NCI-H460 lung
NCI-H522 lung = system: NCI-H522 lung
OVCAR-3 ovarian = system: OVCAR-3 ovarian
OVCAR-5 ovarian = system: OVCAR-5 ovarian
OVCAR-8 ovarian = system: OVCAR-8 ovarian
RPMI-8226 leukemia = system: RPMI-8226 leukemia
SF-268 CNS = system: SF-268 CNS
SF-295 CNS = system: SF-295 CNS
SF-539 CNS = system: SF-539 CNS
SK-MEL-2 melanoma = system: SK-MEL-2 melanoma
SK-MEL-5 melanoma = system: SK-MEL-5 melanoma
SK-OV-3 ovarian = system: SK-OV-3 ovarian
SN12C renal = system: SN12C renal
SNB-19 CNS = system: SNB-19 CNS
SNB-78 CNS = system: SNB-78 CNS
SW-620 colon = system: SW-620 colon
TK-10 renal = system: TK-10 renal
U251 CNS = system: U251 CNS
UACC-257 melanoma = system: UACC-257 melanoma
UACC-62 melanoma = system: UACC-62 melanoma
UO-31 renal = system: UO-31 renal
XF 498 CNS = system: XF 498 CNS
OVCAR-4 ovarian = system: OVCAR-4 ovarian
RXF 393 renal = system: RXF 393 renal
SK-MEL-28 melanoma = system: SK-MEL-28 melanoma
SNB-75 CNS = system: SNB-75 CNS
SR leukemia = system: SR leukemia
DMS 114 small cell lung = system: DMS 114 small cell lung

## O/N=C(\C(=N/O)Nc1ccc(-c2ccc(NC(=N/O)/C(=N\O)c3ccccc3)cc2)cc1)c1ccccc1
786-0 renal
  TGI: 41.4 µM
A498 renal
  TGI: 51 µM
A549 NSCLC
  TGI: 79.1 µM
ACHN renal
  TGI: 97.2 µM
CAKI-1 renal
  TGI: 62.9 µM
CCRF-CEM leukemia
  TGI: 46.3 µM
COLO 205 colon
  TGI: 30.4 µM
DLD-1 colon
  TGI: 53.8 µM
DMS 273 small cell lung
  TGI: 36.3 µM
EKVX NSCLC
  TGI: 57.9 µM
HCC-2998 colon
  TGI: 18.7 µM
HCT-116 colon
  TGI: 34.6 µM
HCT-15 colon
  TGI: 70 µM
HL-60(TB) leukemia
  TGI: 55.6 µM
HOP-18 NSCLC
  TGI: 37.3 µM
HOP-62 NSCLC
  TGI: 30.1 µM
HOP-92 NSCLC
  TGI: 58.1 µM
HT29 colon
  TGI: 29.2 µM
IGROV1 ovarian
  TGI: 57.6 µM
K-562 leukemia
  TGI: 44 µM
KM12 colon
  TGI: 33.6 µM
KM20L2 colon
  TGI: 36.5 µM
LOX IMVI melanoma
  TGI: 29.1 µM
LXFL 529 NSCLC
  TGI: 32.2 µM
M14 melanoma
  TGI: 32.8 µM
M19-MEL melanoma
  TGI: 31.4 µM
MALME-3M melanoma
  TGI: 44.7 µM
MOLT-4 leukemia
  TGI: 41.3 µM
NCI-H226 lung
  TGI: 69.2 µM
NCI-H23 lung
  TGI: 32.1 µM
NCI-H460 lung
  TGI: 32.4 µM
NCI-H522 lung
  TGI: 33.3 µM
OVCAR-3 ovarian
  TGI: 40.2 µM
OVCAR-5 ovarian
  TGI: 27.5 µM
OVCAR-8 ovarian
  TGI: 45 µM
RPMI-8226 leukemia
  TGI: 57.9 µM
SF-268 CNS
  TGI: 69.2 µM
SF-295 CNS
  TGI: 37.4 µM
SF-539 CNS
  TGI: 35.3 µM
SK-MEL-2 melanoma
  TGI: 36.3 µM
SK-MEL-5 melanoma
  TGI: 34.8 µM
SK-OV-3 ovarian
  TGI: 33.8 µM
SN12C renal
  TGI: 97.3 µM
SNB-19 CNS
  TGI: 50.7 µM
SNB-78 CNS
  TGI: 97.4 µM
SW-620 colon
  TGI: 49.8 µM
TK-10 renal
  TGI: 82.4 µM
U251 CNS
  TGI: 60.9 µM
UACC-257 melanoma
  TGI: 80.6 µM
UACC-62 melanoma
  TGI: 35.4 µM
UO-31 renal
  TGI: 82.9 µM
XF 498 CNS
  TGI: 41.3 µM

## COc1ccc2c3ccc4c(c3n(C)c2c1)C(=O)C=CC4=O
786-0 renal
  TGI: 32.9 µM
A498 renal
  TGI: > 100 µM
A549 NSCLC
  TGI: > 100 µM
ACHN renal
  TGI: 59.6 µM
CCRF-CEM leukemia
  TGI: 49.9 µM
COLO 205 colon
  TGI: > 100 µM
DLD-1 colon
  TGI: 30.2 µM
DMS 273 small cell lung
  TGI: > 100 µM
EKVX NSCLC
  TGI: > 100 µM
HCC-2998 colon
  TGI: > 100 µM
HCT-116 colon
  TGI: 48.4 µM
HCT-15 colon
  TGI: > 100 µM
HL-60(TB) leukemia
  TGI: 19.8 µM
HOP-18 NSCLC
  TGI: > 100 µM
HOP-62 NSCLC
  TGI: > 100 µM
HOP-92 NSCLC
  TGI: 32.3 µM
HT29 colon
  TGI: > 100 µM
IGROV1 ovarian
  TGI: > 100 µM
K-562 leukemia
  TGI: 26.6 µM
KM20L2 colon
  TGI: > 100 µM
LXFL 529 NSCLC
  TGI: 28.6 µM
M14 melanoma
  TGI: > 100 µM
M19-MEL melanoma
  TGI: 46.2 µM
MALME-3M melanoma
  TGI: > 100 µM
MOLT-4 leukemia
  TGI: 13.6 µM
NCI-H226 lung
  TGI: > 100 µM
NCI-H23 lung
  TGI: > 100 µM
NCI-H522 lung
  TGI: 22.4 µM
OVCAR-4 ovarian
  TGI: 92.5 µM
OVCAR-8 ovarian
  TGI: 33.2 µM
RPMI-8226 leukemia
  TGI: 48.4 µM
RXF 393 renal
  TGI: 37.5 µM
SF-268 CNS
  TGI: > 100 µM
SF-295 CNS
  TGI: > 100 µM
SF-539 CNS
  TGI: 52.8 µM
SK-MEL-28 melanoma
  TGI: > 100 µM
SK-MEL-5 melanoma
  TGI: > 100 µM
SK-OV-3 ovarian
  TGI: > 100 µM
SN12C renal
  TGI: > 100 µM
SNB-19 CNS
  TGI: > 100 µM
SNB-75 CNS
  TGI: > 100 µM
SNB-78 CNS
  TGI: > 100 µM
SR leukemia
  TGI: 22.2 µM
SW-620 colon
  TGI: 30.6 µM
U251 CNS
  TGI: > 100 µM
UACC-257 melanoma
  TGI: > 100 µM
UACC-62 melanoma
  TGI: > 100 µM
UO-31 renal
  TGI: 90.3 µM
XF 498 CNS
  TGI: 52.5 µM

## O=C1OC(c2cccc(C(F)(F)F)c2)(c2cccc(C(F)(F)F)c2)c2ccc3ccccc3c21
786-0 renal
  GI50: > 100 µM
  TGI: > 100 µM
A498 renal
  GI50: > 100 µM
  TGI: > 100 µM
A549 NSCLC
  GI50: > 100 µM
  TGI: > 100 µM
ACHN renal
  TGI: > 100 µM
CAKI-1 renal
  TGI: > 100 µM
CCRF-CEM leukemia
  GI50: 9.13 µM
  TGI: > 100 µM
COLO 205 colon
  GI50: > 100 µM
  TGI: > 100 µM
DLD-1 colon
  GI50: > 100 µM
  TGI: > 100 µM
DMS 114 small cell lung
  GI50: 4.44 µM
  TGI: > 100 µM
DMS 273 small cell lung
  GI50: > 100 µM
  TGI: > 100 µM
EKVX NSCLC
  GI50: > 100 µM
  TGI: > 100 µM
HCC-2998 colon
  GI50: > 100 µM
  TGI: > 100 µM
HCT-15 colon
  TGI: > 100 µM
HL-60(TB) leukemia
  TGI: > 100 µM
HOP-18 NSCLC
  GI50: > 100 µM
  TGI: > 100 µM
HOP-62 NSCLC
  GI50: > 100 µM
  TGI: > 100 µM
HOP-92 NSCLC
  TGI: > 100 µM
IGROV1 ovarian
  GI50: > 100 µM
  TGI: > 100 µM
K-562 leukemia
  GI50: 4.29 µM
  TGI: > 100 µM
KM12 colon
  TGI: > 100 µM
KM20L2 colon
  TGI: > 100 µM
LOX IMVI melanoma
  GI50: > 100 µM
  TGI: > 100 µM
LXFL 529 NSCLC
  GI50: 7.26 µM
  TGI: > 100 µM
M14 melanoma
  GI50: > 100 µM
  TGI: > 100 µM
MALME-3M melanoma
  GI50: > 100 µM
  TGI: > 100 µM
MOLT-4 leukemia
  GI50: 7.21 µM
  TGI: > 100 µM
NCI-H226 lung
  TGI: > 100 µM
NCI-H23 lung
  GI50: 3.92 µM
  TGI: > 100 µM
OVCAR-3 ovarian
  GI50: 22.4 µM
  TGI: > 100 µM
OVCAR-4 ovarian
  GI50: > 100 µM
  TGI: > 100 µM
OVCAR-5 ovarian
  GI50: > 100 µM
  TGI: > 100 µM
OVCAR-8 ovarian
  GI50: > 100 µM
  TGI: > 100 µM
RPMI-8226 leukemia
  GI50: 7.56 µM
  TGI: > 100 µM
RXF 393 renal
  TGI: > 100 µM
SF-268 CNS
  TGI: > 100 µM
SF-295 CNS
  TGI: > 100 µM
SF-539 CNS
  TGI: > 100 µM
SK-MEL-2 melanoma
  GI50: > 100 µM
  TGI: > 100 µM
SK-MEL-28 melanoma
  GI50: > 100 µM
  TGI: > 100 µM
SK-MEL-5 melanoma
  GI50: 5.26 µM
  TGI: > 100 µM
SK-OV-3 ovarian
  GI50: > 100 µM
  TGI: > 100 µM
SN12C renal
  GI50: > 100 µM
  TGI: > 100 µM
SNB-19 CNS
  TGI: > 100 µM
SNB-75 CNS
  GI50: > 100 µM
  TGI: > 100 µM
SNB-78 CNS
  GI50: > 100 µM
  TGI: > 100 µM
SW-620 colon
  GI50: > 100 µM
  TGI: > 100 µM
TK-10 renal
  GI50: > 100 µM
  TGI: > 100 µM
U251 CNS
  TGI: > 100 µM
UACC-257 melanoma
  TGI: > 100 µM
UACC-62 melanoma
  GI50: > 100 µM
  TGI: > 100 µM
UO-31 renal
  GI50: > 100 µM
  TGI: > 100 µM
XF 498 CNS
  TGI: > 100 µM
